Experimental data reported in a melting point compilation (Tetko et al.; mined from patent text by program, amines drawn as free bases though some values may be those of a salt).

SMILES	melting point [°C]
Cc1ccc(N)cc1C(=O)NS(C)(=O)=O	174 to 176
COc1cc2c(cc1-c1ccc(F)cc1)C(=CNc1ccc(CN3CCCCC3)cc1)C(=O)NC2=O	227 to 230
O=Cc1cn(C(c2ccccc2)(c2ccccc2)c2ccccc2)c(F)n1	177 to 179
CC=C(NC(=O)C1CC1(CC)CC)C(=O)O (configuration not stated)	129 to 130
NC1=NC(N)(c2ccc(S(=O)(=O)NN3CCOCC3)cc2)NC=N1 (configuration not stated)	> 260
CCCc1sc(-c2ccccc2)nc1O	86 to 87
COc1ccc(OCC(O)CN2CCC(Nc3nc4ccccc4n3Cc3ccc(F)cc3)CC2)cc1 (configuration not stated)	174
Nc1ccc2nc(O)c(O)nc2c1N	> 300
CCOC(=O)C(=O)c1csc(NC(=O)Nc2ccc(OC)cc2)n1	193 to 196
O=C1CC2(CCCC2)c2ccc([N+](=O)[O-])cc21	104
CC1(C)SC2C(NC(c3ccccc3)(c3ccccc3)c3ccccc3)C(=O)N2C1C#N (configuration not stated)	116 to 119
COC(=O)Nc1cc(-c2ccc(S(C)(=O)=O)cc2)n(-c2ccc(F)cc2)n1	225 to 227
COc1cc(OC)nc(C(CC(=O)C(C)(C)C)C(=O)NS(C)(=O)=O)n1 (configuration not stated)	97 to 98
O=C(O)c1ccc(=O)n(NC(=O)c2cccnc2)c1	> 250
CC1(C)CCOc2ccc(C3(C)C=CC=CC3C=O)cc21 (configuration not stated)	85 to 86
Nc1nccc(-c2c[nH]c3nccc(OCc4ccccc4)c23)n1	> 210
CCN(CC)S(=O)(=O)c1ccc2c(c1)-c1c(nc(C)[nH]c1=O)CC2	249 to 251
COc1ccc2oc(-c3nc4c(s3)NCCCC4)cc2c1	121 to 125
NCCN1CCC(Nc2nc3ccccc3[nH]2)CC1	99.8
Cc1ccc(-c2nn(-c3ccccc3)c(N)c2C#N)cc1	186 to 188
Fc1ccc(-c2nc(S)[nH]c2-c2ccncc2)cc1	386 to 388
CCCN1C(=O)N2C[C@@H](Cc3ccccc3)N=C2c2c1nc(SC)n2COC	110 to 112
CNC(=O)c1cnc(-c2ccccc2)c(-c2ccc(=O)n(C(C)C)n2)c1	212 to 213
CC(CN(O)C(N)=O)OCc1ccco1 (configuration not stated)	59 to 62

SMILES	melting point [°C]
O=c1c2c(Cc3ccc(F)cc3)n[nH]c2c2cccnc2n1-c1ccccc1	271 to 274
O=C1NC(=O)C2CCCCC12 (configuration not stated)	132 to 136
CC1(C)CC(=C(c2ccc(O)cc2)c2ccc(F)cc2)CC(C)(C)C1	134 to 135
CCOC(=O)c1cnn2c1nc(N1CCCCC1)c1cnc3c(cnn3CC)c12	183 to 184
CC(=O)SC[C@H](NC(=O)OC(C)(C)C)C(=O)NC(CS)C(C)=O (some centres not stated)	111 to 113
Cc1c(C#N)sc2nc(-c3ccccc3)nc(N3CCNCC3)c12	251 to 253
COc1cccc(Cn2cc3c(-c4cccc(C(=O)NCCC#N)c4)cccc3n2)n1	145 to 146
O=c1c(-c2ccccc2)c[nH]n1-c1cccc(Cl)c1	211 to 212
CC(=O)C1=CCC2C3CCC4CC(OS(=O)(=O)c5ccc(C)cc5)CCC4(C)C3CCC12C (configuration not stated)	146 to 148
O=C1NC(=O)C(=Cc2ccc(N3CCC4(CC3)OCCO4)c(Br)c2)S1	109 to 111
C[C@@H](Cn1ncc2ccc3c(c21)O[C@@H](CO)CO3)NC(=O)OCc1ccccc1	116 to 117
COc1cc(OC)nc(NC(=O)NS(=O)(=O)c2ccccc2C=C2CCOC2=O)n1	185 to 190
Cc1ccc(C(CC(=O)O)C(=O)O)s1 (configuration not stated)	186 to 188
Cc1ccc(-c2cnc3c(N)ncnc3n2)cc1	315
NC(=O)Nc1cccc(CS(=O)(=O)O)c1	180 to 187
CC(=O)C1=CCC2C3CCC4CC(O)CCC4(C)C3=CCC12C (configuration not stated)	188 to 190
CCCC=Cc1c(C(C)C)nc(C(C)C)c(CO)c1-c1ccc(F)c(F)c1	105 to 106
CCCCc1nn2c(C)c(-c3ccccc3)nc2n1Cc1ccc(-c2ccccc2-c2nnn[nH]2)cc1	207 to 208
CC(C)(C)OC(=O)NN=C1C2CC3CC(C2)CC1C3	175 to 177
CC1=CC2C(CC1)C(c1ccc(F)cc1)=NC(=O)N2C(C)C (configuration not stated)	154 to 158
CCCCCCCCCCCCC(O)CN(CCC#N)CCCCCCCCCCCCN(CCC#N)CC(O)CCCCCCCCCCCC (configuration not stated)	37 to 38
Cc1cc2c(cc1C(F)(F)F)NCC2	43 to 44
CC(=O)Nc1c(OC(C)=O)cc(C)c(C)c1[N+](=O)[O-]	209 to 211
CC(=O)Oc1cnc(C(C)(C)C)nc1O	164

SMILES	melting point [°C]
CC(Oc1ccc(S(C)=O)cc1)c1ccnc2ncnn12 (configuration not stated)	89 to 102
COc1ccc2c(c1)CC(CCCNCCCSc1nnc(-c3ccccc3)n1C)CC2 (configuration not stated)	92 to 95
CC1COc2cnc3cc(Cl)ccc3c2N1 (configuration not stated)	215 to 217
CC(C)n1c(C=O)c(-c2ccc(F)cc2)c(-c2ccccc2)c1C(=O)O	219 to 220
COc1ccccc1-c1nn(-c2ccccc2)c(=O)o1	112 to 115
O=c1[nH]c2c(cc1-c1noc(C3CC3)n1)CN(Cc1ccccc1)CC2	187 to 190
CC(C)(C)[Si](C)(C)Oc1ccc(CCNc2ncnc3nccnc23)cc1	164 to 165
O=C(COCc1ccccc1)Nc1ccc(OC(=O)COCc2ccccc2)cc1	55.5 to 58.5
Cc1nc(C)c(CO)c(-c2ccc(F)cc2)n1	174 to 176
c1ccc(-c2nn3cnnc3c3ccccc23)cc1	198 to 199
Cc1nc2c(N)nc3ccccc3c2n1CCC1(O)CCCCC1	> 252
C=CCC1(C(C)(C)C(=O)OCC)C(=O)NC(=O)NC1=O	112 to 114
O=C(c1ccccc1Cl)c1cc(Cl)ccc1C#CCN1C(=O)c2ccccc2C1=O	144 to 145
O=C1c2ccccc2C(=O)N1OC1C=CCCC1 (configuration not stated)	87
COc1ccc(-c2ccc(C(=O)Nc3ccc4cc(CN5CCCC5)cnc4c3C)cc2)cc1	190 to 192
CC(O)Cc1cc2c(cc1C(=NNc1ncccn1)c1ccc([N+](=O)[O-])cc1)OCO2 (configuration not stated)	125 to 127
O=C(O)c1cn(C2CC2)c2nc(N3CCC(c4ccncc4)C3)c(F)cc2c1=O (configuration not stated)	223 to 225
Cn1ncc(/C=C\C(=O)O)c1-c1ccc(F)cc1	205 to 206
O=C(O)CCCCCCC(=NOCc1ccc(OCc2noc(-c3ccccc3)n2)cc1)c1ccccc1	76 to 77
COc1ccc(S(=O)(=O)Nc2cccnc2Nc2ccc(OC)c(OC)c2)cc1	126 to 127
CNC(=O)N1CCN(CC(O)COc2ccccc2)CC1 (configuration not stated)	91 to 95
O=C(O)C1CCc2sc3ccccc3c2C1 (configuration not stated)	202 to 203

The remaining lines, values ahead:

melting point [°C]	SMILES
232 to 235	Cc1cccc(C)c1N1CC(C)N(c2c(C)cccc2C)C1=NC(=O)C(F)(F)F (configuration not stated)
165 to 167	COc1cc2cc(COC(C)=O)c(COC(C)=O)c(-c3ccncc3)c2cc1OC
74.8 to 75	CC(C)(CO)CCCCN1C(=O)c2ccccc2C1=O
140	Cc1cc(-n2ccnc2)c2cccc(OCc3c(Cl)ccc(S(=O)(=O)N4C[C@H](O)C[C@H]4C(=O)O)c3Cl)c2n1
111 to 113	CC(=O)c1ccc(OCCCOc2cc(N)c(C)cc2Cl)c(CCC(F)(F)F)c1O
141 to 143	O=C1c2ccccc2C(=O)N1Cc1ccc(/C=C/C(c2cc(Cl)cc(Cl)c2)C(F)(F)F)cc1Cl (configuration not stated)
241 to 242	CCOC(=O)c1ncc2[nH]c3ccc(-c4ccccc4)cc3c2c1C
139 to 141	COc1cc(-c2cn3ccccc3n2)c(F)cc1Cl
217 to 218	CC(C)(O)Cn1cnc2c(N)nc3cc(CCC(=O)N4CCOCC4)ccc3c21
212 to 214	Cc1nc(Cc2ccccc2)c2c(c1O)COC2
168 to 169	O=C(NCCO)c1ccnc(-c2cccc3cc(Cc4cccc(C(F)(F)F)c4)sc23)c1
250	CCOc1ccc(-c2cc(C(F)(F)F)n3ncc(-c4ccnc(C)c4)c3n2)cc1C(F)(F)F
166	O=C(NCCCC(F)(F)F)C(c1ccccc1)c1ccccc1
177 to 179	Cc1cc(CC(=O)O)cc2c1[nH]c1ccccc12
178 to 179	CC(=O)Nc1cccc(C(=O)Nc2cc(NC(=O)c3cccc(N(C)C)c3)ccc2C)c1
243 to 246	COc1cc(Nc2nc3c(s2)CCCC3c2ccccc2)ccc1C(N)=O (configuration not stated)

melting point [°C]	SMILES
134 to 135	O=C(O)Cc1cccc(OCCCCc2cc(-c3ccc(C(F)(F)F)cc3)no2)c1
88	COc1cccc(N(C)C(=O)c2cnc(-c3cccc(C)c3)s2)c1
95 to 97	Cc1cc(SCC#Cc2ccccc2C(F)(F)F)ccc1OCC(=O)O
245 to 248	CCOC(=O)c1cnc2c3cc(N)ccc3c(C)cn2c1=O
38 to 39.5	Cc1cc(CCCCCOc2c(Cl)cc(C3=NCCO3)cc2Cl)sn1
97 to 99	CCOc1ccc(C2=NN(CCCCCC(=O)O)C(=O)[C@H]3CC=CC[C@@H]23)cc1OCC (relative stereo)
100 to 101	COC(=O)c1cc2ccc(OCCc3ccccc3)cc2oc1=O
24	CN(C)CCCCc1ccc(CO)o1
78 to 80	CC(=O)c1c(C)nc(C)nc1NCc1ccc(Br)cc1
169 to 171	CCOC(=O)C(=CNc1cc(C)nc(-c2ccncc2)n1)C(=O)OCC
151 to 152	COc1ccc(CC(C)(C)C(=O)O)cc1C(=O)NCc1ccc(C(F)(F)F)cc1
117	CCSc1c(C)nn(-c2c(Cl)cc(C(F)(F)F)cc2Cl)c1N
85 to 86.5	CCCc1c(OCCCCC#N)ccc(C(=O)c2ccccc2OC)c1O
159 to 160	CC(C)(C)c1cc(CCc2cc(F)cc(F)c2NC(=O)NCC(C)(C)c2ccc(Cl)c(Cl)c2)cc(C(C)(C)C)c1O
126 to 129	CCCCOC(=O)n1nc(-c2cccc(Br)c2)ccc1=O
155 to 156	COc1ccc(-c2cc(=O)c3c(O)cc(OCC4=COC(C)(C)O4)cc3o2)cc1OCC1=COC(C)(C)O1
